Assay results: patent publication USRE39056E1, “4-Azasteroids for treatment of hyperandrogenic conditions” (Merck & Co, Inc., priority 1995, dated 2006)
Read-outs that look alike come from different tables or passages of the source.

Legend:
type 2 5α-reductase = molecular target: T1, type 2 5α-reductase (Homo sapiens, UniProt P31213); assay: 5α-reductase assay, type 2 (human prostatic homogenate), inhibition studies; type: biochemical
T1 construct: Preparation of Human Prostatic and Scalp 5α-reductases; from tissue; host or cells: human prostate (crude nuclear pellet of the homogenate)
T1 sequence (P31213 1-254): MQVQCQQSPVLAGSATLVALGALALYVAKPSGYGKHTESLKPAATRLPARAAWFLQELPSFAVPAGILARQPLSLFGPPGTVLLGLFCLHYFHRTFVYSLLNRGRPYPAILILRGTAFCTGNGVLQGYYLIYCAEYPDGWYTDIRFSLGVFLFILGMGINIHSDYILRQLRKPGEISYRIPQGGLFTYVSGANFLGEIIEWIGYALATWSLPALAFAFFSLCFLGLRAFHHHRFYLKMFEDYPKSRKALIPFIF
Method: (§1) Samples of human tissue were pulverized using a freezer mill and homogenized in 40 mM potassium phosphate, pH 6.5, 5 mM magnesium sulfate, 25 mM potassium chloride, 1 mM phenylmethyl-sulfonyl fluoride, 1 mM dithiothreitol (DTT) containing 0.25 M sucrose using a Potter-Elvehjem homogenizer. A crude nuclear pellet was prepared by centrifugation of the homogenate at 1,500× G for 15 min. The crude nuclear pellet was washed two times and resuspended in two volumes of buffer. Glycerol was added to the resuspended pellet to a final concentration of 20%. The enzyme suspension was frozen in aliquots at −80° C.
(§2) The reaction mixture for the type 1 5α-reductase contained 40 mM potassium phosphate, pH 6.5, […] [7-^3H]-testosterone, 1 mM dithiothreitol and 500 μM NADPH in a final volume of 100 μL. The reaction mixture for the type 2 5α-reductase contained 40 mM sodium citrate, pH 5.5 0.3 mM [7-^3H]-testosterone, 1 mM dithiothreitol and 500 μM NADPH in a final volume of 100 μL. Typically, the assay was initiated by the addition of 50-100 μg prostatic homogenate or 75-200 μg scalp homogenate and incubated at 37° C. After 10-50 min. the reaction was quenched by extraction with 250 μL of a mixture of 70% cyclohexane: 30% ethyl acetate containing 10 μg each DHT and T. The aqueous and organic layers were separated by centrifugation at 14,000 rpm in an Eppendorf microfuge. The organic layer was subjected to normal phase HPLC (10 cm Whatman partisil 5 silica column established in 1 ml/min 70% cyclohexane: 30% ethyl acetate; retention times: DHT, 6.8-7.2 min.; androstanediol, 7.6-8.0 min.; T, 9.1-9.7 min.). […] The conversion of T to DHT was monitored using the radioactivity flow detector by mixing the HPLC effluent with one volume of Flo Scint 1 (Radiomatic).
(§3) Compounds were dissolved in 100% ethanol. The compound to be tested was pre-incubated with the enzyme (either 5α-reductase type 1 or 2) prior to initiation by addition of substrate testosterone. […] Representative compounds of this invention were tested in the above described assay for 5α-reductase type 1 and type 2 inhibition.

human androgen receptor = molecular target: T2, human androgen receptor (Homo sapiens, UniProt P10275); assay: Human androgen receptor activity assay (anti-androgen activity, hAR); type: binding
T2 sequence (P10275 1-920): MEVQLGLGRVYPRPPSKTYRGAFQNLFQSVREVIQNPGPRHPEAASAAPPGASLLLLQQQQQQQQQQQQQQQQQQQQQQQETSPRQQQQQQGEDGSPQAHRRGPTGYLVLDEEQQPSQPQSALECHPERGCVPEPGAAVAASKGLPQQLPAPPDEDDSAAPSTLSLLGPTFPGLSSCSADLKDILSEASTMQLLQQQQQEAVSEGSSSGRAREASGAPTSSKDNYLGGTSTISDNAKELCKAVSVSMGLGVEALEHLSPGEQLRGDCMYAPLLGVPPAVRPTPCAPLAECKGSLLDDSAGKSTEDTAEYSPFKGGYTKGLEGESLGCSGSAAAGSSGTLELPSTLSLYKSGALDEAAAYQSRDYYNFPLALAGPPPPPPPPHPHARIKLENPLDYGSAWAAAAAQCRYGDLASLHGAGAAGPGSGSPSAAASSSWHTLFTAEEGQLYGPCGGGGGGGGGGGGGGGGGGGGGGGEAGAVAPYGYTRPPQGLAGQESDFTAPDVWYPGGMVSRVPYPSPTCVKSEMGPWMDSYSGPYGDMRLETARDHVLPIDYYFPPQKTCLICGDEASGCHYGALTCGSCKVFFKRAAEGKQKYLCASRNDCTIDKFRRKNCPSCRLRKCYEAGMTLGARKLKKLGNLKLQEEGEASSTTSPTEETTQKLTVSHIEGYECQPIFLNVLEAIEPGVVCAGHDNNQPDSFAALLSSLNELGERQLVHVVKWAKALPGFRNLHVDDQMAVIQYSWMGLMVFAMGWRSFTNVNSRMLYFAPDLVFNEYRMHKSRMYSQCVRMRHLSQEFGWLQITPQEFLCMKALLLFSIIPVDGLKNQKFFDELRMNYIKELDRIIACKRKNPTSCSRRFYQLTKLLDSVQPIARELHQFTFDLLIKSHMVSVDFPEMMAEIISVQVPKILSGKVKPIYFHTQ

type 1 5α-reductase = molecular target: T3, type 1 5α-reductase (Homo sapiens, UniProt P18405); assay: 5α-reductase assay, type 1 (human scalp homogenate), inhibition studies; type: biochemical
T3 construct: Preparation of Human Prostatic and Scalp 5α-reductases; from tissue; host or cells: human scalp (crude nuclear pellet of the homogenate)
T3 sequence (P18405 1-259): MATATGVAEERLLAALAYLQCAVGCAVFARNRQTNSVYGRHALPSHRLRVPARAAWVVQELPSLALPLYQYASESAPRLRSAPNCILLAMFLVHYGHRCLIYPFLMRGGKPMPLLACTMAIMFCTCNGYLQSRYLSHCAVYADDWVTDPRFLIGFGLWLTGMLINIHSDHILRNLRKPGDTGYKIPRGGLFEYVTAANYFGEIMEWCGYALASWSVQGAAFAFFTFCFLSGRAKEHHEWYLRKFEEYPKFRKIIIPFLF
Method: as §1, §2, §3

[1] = human, conversion of testosterone to DHT, pH 5.5, read-out: IC50 Type 2 5aR
[2] = human, anti-androgen activity, read-out: IC50 hAR
[3] = human, conversion of testosterone to DHT, pH 6.5, read-out: IC50 Type 1 5aR

Cc1ccccc1NC(=O)[C@H]1CC[C@H]2[C@@H]3CC[C@H]4N(C)C(=O)C=C[C@]4(C)[C@H]3CC[C@]12C [Example 5, N-(2-methylphenyl)-3-oxo-4-aza-4-methyl-5α-androst-1-ene-17β-carboxamide]
IC50 (type 2 5α-reductase): 20 nM | IC50 (human androgen receptor): 30 nM | IC50 (type 1 5α-reductase): 20 nM

CN1C(=O)C=C[C@]2(C)[C@H]3CC[C@]4(C)[C@@H](C(=O)Nc5cc(C(F)(F)F)ccc5C(F)(F)F)CC[C@H]4[C@@H]3CC[C@@H]12 [Example 7, N-(2,5-bistrifluoromethyl-phenyl)-3-oxo-4-aza-4-methyl-5α-androst-1-ene-17β-carboxamide]
IC50 (type 2 5α-reductase): 20 nM | IC50 (human androgen receptor): 20 nM | IC50 (type 1 5α-reductase): 4 nM

CN1C(=O)C=C[C@]2(C)[C@H]3CC[C@]4(C)[C@@H](C(=O)NC(c5ccccc5)c5ccccc5)CC[C@H]4[C@@H]3CC[C@@H]12 [Example 10, N-(diphenylmethyl)-4-methyl-3-oxo-4-aza-5α-androst-1-ene-17-β-carboxamide]
IC50 (type 2 5α-reductase; [1]): 2 nM | IC50 (human androgen receptor; [2]): 40 nM | IC50 (type 1 5α-reductase; [3]): 20 nM

CN1C(=O)C=C[C@]2(C)[C@H]3CC[C@]4(C)[C@@H](C(=O)Nc5ccccc5F)CC[C@H]4[C@@H]3CC[C@@H]12 [Example 3, N-(2-fluorophenyl)-3-oxo-4-aza-4-methyl-5α-androst-1-ene-17β-carboxamide]
IC50 (type 2 5α-reductase): 60 nM | IC50 (human androgen receptor): 9 nM | IC50 (type 1 5α-reductase): 20 nM

CN(C(=O)[C@H]1CC[C@H]2[C@@H]3CC[C@H]4N(C)C(=O)C=C[C@]4(C)[C@H]3CC[C@]12C)C(c1ccccc1)c1ccccc1 [Example 11, N-(diphenylmethyl)-N-(methyl)-4-methyl-3-oxo4-aza-5α-androst-1-ene-17-β-carboxamide]
IC50 (type 2 5α-reductase; [1]): 0.3 nM | IC50 (human androgen receptor; [2]): 850 nM | IC50 (type 1 5α-reductase; [3]): 3 nM

COc1ccccc1NC(=O)[C@H]1CC[C@H]2[C@@H]3CC[C@H]4N(C)C(=O)C=C[C@]4(C)[C@H]3CC[C@]12C [Example 2, N-(2-methoxyphenyl)-3-oxo-4-aza-4-methyl-5α-androst-1-ene-17β-carboxamide]
IC50 (type 2 5α-reductase): 100 nM | IC50 (human androgen receptor): 40 nM | IC50 (type 1 5α-reductase): 20 nM

CN1C(=O)C=C[C@]2(C)[C@H]3CC[C@]4(C)[C@@H](C(=O)Nc5ccc(Cl)cc5)CC[C@H]4[C@@H]3CC[C@@H]12 [Example 1, N-(4-chlorophenyl)-3-oxo-4-methyl-4-aza-5α-androst-1-ene-17β-carboxamide]
IC50 (type 2 5α-reductase): 100 nM | IC50 (human androgen receptor; [2]): 10 nM | IC50 (type 1 5α-reductase): 40 nM

CN1C(=O)C=C[C@]2(C)[C@H]3CC[C@]4(C)[C@@H](C(=O)Nc5ccccc5C(F)(F)F)CC[C@H]4[C@@H]3CC[C@@H]12 [Example 4, N-(2-trifluoromethyl-phenyl)-3-oxo-4-aza-4-methyl-5α-androst-1-ene-17β-carboxamide]
IC50 (type 2 5α-reductase): 7 nM | IC50 (human androgen receptor): 30 nM | IC50 (type 1 5α-reductase): 2 nM

CN1C(=O)C=C[C@]2(C)[C@H]3CC[C@]4(C)[C@@H](C(=O)Nc5ccccc5Cl)CC[C@H]4[C@@H]3CC[C@@H]12 [Example 6, N-(2-chlorophenyl)-3-oxo-4-aza-4-methyl-5α-androst-1-ene-17β-carboxamide]
IC50 (type 2 5α-reductase): 10 nM | IC50 (human androgen receptor): 8 nM | IC50 (type 1 5α-reductase): 6 nM
